Measurements taken from PMC12040169 (PLOS Biology, 2025).

Test: in vitro
Details: human, hela cells, % viability

| SMILES | viability at 28.5 h, 10 µM [%] |
| --- | --- |
| Cc1ccc(S(=O)(=O)NCCc2ccccn2)s1 [CBK269223] | 102 |
| Cn1c(=O)c2c(nc(CN3CCOCC3)n2Cc2c(F)cccc2Cl)n(C)c1=O [CBK269224] | 98.9 |
| Cc1nnc(SCC(=O)Nc2nonc2C)s1 [CBK269227] | 98.9 |
| CSCCC(C(=O)O)n1c(S)nnc1-c1ccc2ccccc2n1 (stereo not drawn) [CBK269230] | 99.5 |
| COc1ccc(-c2oc3ccccc3c(=O)c2OCC(=O)O)cc1 [CBK269232] | 98.7 |
| O=C(NCCCN1CCOCC1)Nc1ccccc1F [CBK269233] | 88.6 |
| c1ccc(Cn2c(CN3CCCCC3)nc3ccccc32)cc1 [CBK269237] | 102 |
| O=C(CCN1C(=O)c2ccc(Br)cc2C1=O)N1CCN(Cc2ccccc2)CC1 [CBK269238] | 104 |
| COC(=O)c1ccc(NC(=O)CSc2nnc(-c3ccncc3)s2)cc1 [CBK269239] | 103 |
| COc1ccc(/C=C/c2nc(C#N)c(NCc3cccnc3)o2)cc1OC [CBK269240] | 91.3 |
| O=C(NCCc1cc2ccccc2[nH]1)Nc1cccc2ccccc12 [CBK269246] | 106 |
| COc1ccccc1NC(=O)c1sc2nc(N3CCOCC3)c3c(c2c1N)CCCC3 [CBK269247] | 103 |
| Cc1c(NC(=O)CN2CCCC(C)C2)ccc2nsnc12 (stereo not drawn) [CBK269248] | 97.4 |
| Cc1ccc(C(=O)N2CCN(S(=O)(=O)N3CCCCCC3)CC2)cc1 [CBK269249] | 101 |
| CS(=O)(=O)N1CCN(c2ccccc2NC(=O)COc2ccccc2Cl)CC1 [CBK269250] | 103 |
| O=C(O)c1cccc(-n2c(S)nnc2-c2cnccn2)c1 [CBK269252] | 104 |
| O=C(COc1ccc(S(=O)(=O)N2CCCCC2)cc1Cl)NCc1ccccn1 [CBK269253] | 89.6 |
| Cc1cc(S(=O)(=O)N2CCCCC2)ccc1OCC(=O)O [CBK269254] | 80 |
| O=C(O)CCN1CCN(S(=O)(=O)c2ccc3ccccc3c2)CC1 [CBK269255] | 88.4 |
| O=C(c1cccs1)N(Cc1ccco1)c1ccc(O)cc1 [CBK269256] | 88.9 |
| Cn1c(=O)c2c(nc(CN3CCOCC3)n2CCc2ccccc2)n(C)c1=O [CBK269264] | 89.3 |
| COc1ccccc1N1CCn2c1nc1c2c(=O)n(CCN2CCOCC2)c(=O)n1C [CBK269265] | 93.4 |
| Cc1ccc(S(=O)(=O)CCOc2nc3c(C(F)(F)F)cc(C4CC4)nc3o2)cc1 [CBK269267] | 111 |

| SMILES | viability at 28.5 h, 10 µM [%] |
| --- | --- |
| COC(=O)c1c(NC(=O)C(=O)NCc2ccco2)sc2c1CCCC2 [CBK269269] | 87.5 |
| CN1CCN(CC(=O)C(C#N)c2ccccc2)CC1 (stereo not drawn) [CBK269270] | 87.7 |
| COc1ccc(-c2noc(CNC(=O)Cc3ccc(-c4ccccc4)cc3)n2)cc1 [CBK269272] | 105 |
| Cc1ccc2cc(CN(Cc3ccco3)C(=O)c3cccs3)c(O)nc2c1 [CBK269274] | 105 |
| COC(=O)c1ccccc1NC(=O)CC1Nc2ccccc2NC1=O (stereo not drawn) [CBK269276A] | 91.9 |
| c1ccc2c(c1)OCC(c1nn3cnnc3s1)O2 (stereo not drawn) [CBK269277] | 111 |
| Cn1c(=O)c2c(nc(CN3CCCCC3)n2CCCO)n(C)c1=O [CBK269280] | 106 |
| Cn1c(=O)c2c(nc(CN3CCCCC3)n2CCN2CCOCC2)n(C)c1=O [CBK269281] | 99.2 |
| Cn1c(=O)[nH]c(=O)c2c1nc(Sc1ncccn1)n2CCCc1ccccc1 [CBK269282] | 86.3 |
| Cc1onc(-c2ccccc2Cl)c1C(=O)N(Cc1nc(-c2ccccc2)no1)C(C)C [CBK269289] | 113 |
| CCN1CCN(C(=S)c2ccc(OCC(N)=O)c(OC)c2)CC1 [CBK269293] | 86.1 |
| COc1ccc2c(CCNC(=O)C(c3ccccc3)c3ccccc3)c[nH]c2c1 [CBK269294] | 81.3 |
| CC(=O)Nc1cccc(C(=O)N(Cc2ccccc2)Cc2ccccc2)c1 [CBK269295] | 91.6 |
| COc1ccc2[nH]cc(CCNC(=O)c3ccc(NC(C)=O)cc3)c2c1 [CBK269296] | 96.6 |
| Cc1ccc2cc(CN(Cc3ccco3)C(=O)C3CCCO3)c(O)nc2c1 (stereo not drawn) [CBK269300] | 103 |
| O=C(CC(C(=O)O)n1cncn1)c1ccc(Br)cc1 (stereo not drawn) [CBK269305] | 103 |
| CN1CCN(Cc2nc3c(c(=O)n(C)c(=O)n3C)n2Cc2ccc(Br)cc2)CC1 [CBK269310] | 87.9 |
| Cc1c(C(=O)C2=C(O)C(=O)N(CCCN(C)C)C2c2cccnc2)cnn1-c1ccccc1 (stereo not drawn) [CBK269312] | 93.8 |
| C=CCNS(=O)(=O)c1ccc(NC(=O)Nc2ccc(Cl)cc2)cc1 [CBK269315] | 101 |
| Fc1c(F)c(Oc2ccccc2Cl)c(F)c(F)c1/C=C/CN1CCOCC1 [CBK269318C] | 96.7 |
| COc1ccc(OC)c(-n2c(S)nnc2Cn2c(-c3ccccn3)nc3ccccc32)c1 [CBK269320] | 93.5 |
| O=C(O)c1ccccc1SC1CC(=O)N(CCc2ccccc2)C1=O (stereo not drawn) [CBK269321] | 93.6 |
| CC1CCCCN1Cc1nc2c(c(=O)n(C)c(=O)n2C)n1CCCc1ccccc1 (stereo not drawn) [CBK269326] | 97 |

| SMILES | viability at 28.5 h, 10 µM [%] |
| --- | --- |
| Cn1c(=O)n(CCN2CCOCC2)c(=O)c2c1nc1n2CCN1c1ccccc1 [CBK269328] | 95.1 |
| Cc1ccc2cc(CN(Cc3ccccc3)S(C)(=O)=O)c(O)nc2c1 [CBK269329] | 94.4 |
| Cc1ccc2nsnc2c1NC(=O)CN1CCCCC1 [CBK269330] | 110 |
| Cc1cccc(NC(=O)C(c2ccccc2)N2CCOCC2)c1 (stereo not drawn) [CBK269331] | 103 |
| N#CC(C(=O)CN1CCCC1)c1ccccc1 (stereo not drawn) [CBK269333] | 98.1 |
| Cc1ncc([N+](=O)[O-])n1CC(=O)Nc1ccccc1F [CBK269335] | 86.4 |
| COc1ccccc1CC(=O)NCc1nc(-c2cccc(C)c2)no1 [CBK269336] | 96.7 |
| O=C1CC(Nc2ccc(N3CCOCC3)cc2)C(=O)N1CCc1ccccc1 (stereo not drawn) [CBK269339] | 111 |
| CC1CN(Cc2nc3c(c(=O)n(C)c(=O)n3C)n2CCN2CCOCC2)CC(C)O1 (stereo not drawn) [CBK269340] | 93.3 |
| Cc1c(NC(=O)CSc2nnc(-c3ccc4ccccc4n3)s2)c(=O)n(-c2ccccc2)n1C [CBK269341] | 92.7 |
| Cn1c(N)c(C(=O)NCC2CCCO2)c2nc3ccccc3nc21 (stereo not drawn) [CBK269342] | 96.8 |
| CCN1CCN(c2ccc(NC(=O)c3cc(-n4cnnc4)ccc3Cl)cc2Cl)CC1 [CBK269343] | 88.1 |
| COc1ccccc1NC(=O)Cn1c(=O)oc2cc(Cl)ccc21 [CBK269344] | 94.6 |
| Cc1cc(C)n(C(=O)CCNS(=O)(=O)c2ccc(Cl)cc2)n1 [CBK269348] | 111 |
| O=C(CSc1nc(=O)cc(O)[nH]1)N1CCc2ccccc21 [CBK269350] | 88.7 |
| O=C(NCCNC(=O)c1ccccc1I)c1ccccn1 [CBK269357] | 89.4 |
| COc1ccc(NC2=NC(=O)CC(C(=O)Nc3ccc(C)c(C)c3)N2)cc1 (stereo not drawn) [CBK269359] | 104 |
| CSc1nsc(SCC(=O)N(c2ccccc2)c2ccccc2)n1 [CBK269361] | 95.3 |
| Cc1nc(C)n(CCc2nc3ccccc3[nH]2)n1 [CBK269364] | 105 |
| CCC1CCCCN1Cc1nc2c(c(=O)n(C)c(=O)n2C)n1CCCO (stereo not drawn) [CBK269365] | 91.8 |
| Cn1c(=O)[nH]c(=O)c2c1nc(N1CCOCC1)n2CCCSc1nc2ccccc2s1 [CBK269368] | 92.7 |
| O=C(NCCCNC(=O)c1ccc(Cl)cc1Cl)c1ccncc1 [CBK269372] | 89.7 |
| CCN(CC(=O)N1CCN(C)CC1)S(=O)(=O)c1ccc(OC)cc1 [CBK269374] | 89.2 |

| SMILES | viability at 28.5 h, 10 µM [%] |
| --- | --- |
| COc1ccc2ccccc2c1CNc1ccc(N2CCOCC2)c(C(=O)O)c1 [CBK269376] | 94.1 |
| COCCn1c(CN2CCC(Cc3ccccc3)CC2)nc2c1c(=O)n(C)c(=O)n2C [CBK269378] | 99.1 |
| Cn1c(=O)c2c(nc(CN3CCC(Cc4ccccc4)CC3)n2CCN2CCOCC2)n(C)c1=O [CBK269380] | 100 |
| COc1ccc(S(=O)(=O)NC(C)C(=O)NCc2cccnc2)cc1Cl (stereo not drawn) [CBK269384] | 95.8 |
| CS(=O)(=O)N(CC(=O)NCc1ccccn1)c1ccc2c(c1)OCO2 [CBK269385] | 87.2 |
| N#CCSc1nc(-c2cccnc2)ccc1C(=O)O [CBK269387] | 106 |
| FC(F)(F)c1cc(-c2ccccc2)nc2onc(OCCN3CCOCC3)c12 [CBK269392] | 90.9 |
| OCc1cc(Cl)c(Cl)c(CO)c1O [CBK269397] | 95.5 |
| COc1ccccc1-c1noc(C2CCN(S(=O)(=O)c3ccc(F)cc3)CC2)n1 [CBK269401] | 92.9 |
| O=C(O)CCN1CCN(S(=O)(=O)c2ccccc2)CC1 [CBK269402] | 106 |
| O=C(Nc1ccc(Cl)cc1)Nc1cccc(C(=O)O)c1 [CBK269404] | 98.7 |
| O=C(CSc1ncnc2c1cnn2-c1ccccc1)Nc1ccccc1 [CBK269408] | 96.4 |
| Cc1ccc2nsnc2c1NC(=O)CSc1nccn1C [CBK269411] | 104 |
| Cc1ccc(C2c3c(O)n[nH]c3CC(C)(O)C2C(=O)OCc2ccccc2)cc1 (stereo not drawn) [CBK269417] | 92.8 |
| Cc1c(NC(=O)CSc2nncn2C)ccc2nsnc12 [CBK269418] | 104 |
| Cc1nnc(SCCn2c(N3CC(C)CC(C)C3)nc3c2c(=O)n(C)c(=O)n3C)s1 (stereo not drawn) [CBK269419] | 100 |
| Cc1cccc(NC(=O)NCc2ccccn2)c1 [CBK269422] | 92.3 |
| CN1CCN(c2ccc(NC(=O)c3cc([N+](=O)[O-])ccc3N3CCOCC3)cc2)CC1 [CBK269425] | 95.6 |
| CC(Nc1nc(N2CCN(CCO)CC2)nc2ccccc12)c1ccccc1 (stereo not drawn) [CBK269427] | 106 |
| O=C(NCCCNC(=O)c1ccc(Br)o1)c1ccccn1 [CBK269430] | 107 |
| COC(=O)c1c(NC(=O)C(=O)NCc2ccccn2)sc2c1CCC2 [CBK269431] | 94.6 |
